{"source": "paper PMC5218480", "about": "(PLoS ONE, 2017)", "test_system": "MV-4-11 cells", "experiment": "Gene expression microarray analysis (Affymetrix PrimeView) and GSEA", "format": "cell-based, human", "parameters": "RFU PODN (11730768_x_at) / Fold change /veh PODN (11730768_x_at) / RFU LINC00158 (11744669_a_at) / Fold change /veh LINC00158 (11744669_a_at) / RFU DUSP10 (11751237_a_at) / Fold change /veh DUSP10 (11751237_a_at) / RFU ID3 (11757404_x_at) / Fold change /veh ID3 (11757404_x_at) / RFU PLEKHG5 (11737974_s_at) / Fold change /veh PLEKHG5 (11737974_s_at) / RFU LRRC4B (11730491_at) / Fold change /veh LRRC4B (11730491_at) / RFU GIMAP4 (11747438_a_at) / Fold change /veh GIMAP4 (11747438_a_at) / RFU KRT8 (11758183_x_at) / Fold change /veh KRT8 (11758183_x_at) / RFU CNN1 (11734310_a_at) / Fold change /veh CNN1 (11734310_a_at) / RFU VPS37D (11726825_at) / Fold change /veh VPS37D (11726825_at) / RFU C10orf10 (11716522_x_at) / Fold change /veh C10orf10 (11716522_x_at) / RFU KIR2DL2 /// KIR2DL4 /// KIR2DL5A /// KIR2DL5B /// KIR2DS1 /// KIR2DS2 /// KIR2DS3 /// KIR2DS4 /// KIR3DL3 /// KIR3DL3 /// KIR3DS1 (11738374_at) / Fold change /veh KIR2DL2 /// KIR2DL4 /// KIR2DL5A /// KIR2DL5B /// KIR2DS1 /// KIR2DS2 /// KIR2DS3 /// KIR2DS4 /// KIR3DL3 /// KIR3DL3 /// KIR3DS1 (11738374_at) / RFU C1QL1 (11718748_at) / Fold change /veh C1QL1 (11718748_at) / RFU TMPRSS4 (11747572_a_at) / Fold change /veh TMPRSS4 (11747572_a_at) / RFU HAMP (11756126_x_at) / Fold change /veh HAMP (11756126_x_at) / RFU RNFT2 (11725882_a_at) / Fold change /veh RNFT2 (11725882_a_at) / RFU NR4A2 (11747474_a_at) / Fold change /veh NR4A2 (11747474_a_at) / RFU ABCC12 (11746883_a_at) / Fold change /veh ABCC12 (11746883_a_at) / RFU TMEM136 (11760407_x_at) / Fold change /veh TMEM136 (11760407_x_at) / RFU CLDN22 /// WWC2 (11732394_at) / Fold change /veh CLDN22 /// WWC2 (11732394_at) / RFU HLA-DPB1 (11760878_x_at) / Fold change /veh HLA-DPB1 (11760878_x_at) / RFU SPINT1 (11716480_a_at) / Fold change /veh SPINT1 (11716480_a_at) / RFU GAP43 (11754022_s_at) / Fold change /veh GAP43 (11754022_s_at) / RFU A4GNT (11735810_at) / Fold change /veh A4GNT (11735810_at) / RFU PRB3 (11715151_x_at) / Fold change /veh PRB3 (11715151_x_at) / RFU TUBB4B (11761932_at) / Fold change /veh TUBB4B (11761932_at) / RFU CAPN14 (11732068_a_at) / Fold change /veh CAPN14 (11732068_a_at) / RFU TMCC2 (11721928_a_at) / Fold change /veh TMCC2 (11721928_a_at) / RFU IRGQ (11745062_a_at) / Fold change /veh IRGQ (11745062_a_at) / RFU FAM174B (11720279_a_at) / Fold change /veh FAM174B (11720279_a_at) / RFU TMPRSS4 (11748680_a_at) / Fold change /veh TMPRSS4 (11748680_a_at) / RFU FAM212B (11763350_a_at) / Fold change /veh FAM212B (11763350_a_at) / RFU PLEKHG5 (11743358_a_at) / Fold change /veh PLEKHG5 (11743358_a_at) / RFU ZSCAN30 (11745921_a_at) / Fold change /veh ZSCAN30 (11745921_a_at) / RFU CMKLR1 (11741424_a_at) / Fold change /veh CMKLR1 (11741424_a_at) / RFU LOC101060620 /// MAPK8IP1 (11723275_at) / Fold change /veh LOC101060620 /// MAPK8IP1 (11723275_at) / RFU SPTSSB (11747773_x_at) / Fold change /veh SPTSSB (11747773_x_at) / RFU PRSS12 (11739890_at) / Fold change /veh PRSS12 (11739890_at) / RFU BIN1 (11741810_x_at) / Fold change /veh BIN1 (11741810_x_at) / RFU WNT11 (11732464_a_at) / Fold change /veh WNT11 (11732464_a_at) / RFU C10orf10 (11716521_a_at) / Fold change /veh C10orf10 (11716521_a_at) / RFU C5orf56 (11738089_at) / Fold change /veh C5orf56 (11738089_at) / RFU CYB561 (11721691_x_at) / Fold change /veh CYB561 (11721691_x_at) / RFU ANKRD19P (11752326_a_at) / Fold change /veh ANKRD19P (11752326_a_at) / RFU OR2T12 /// OR2T33 /// OR2T8 (11738714_s_at) / Fold change /veh OR2T12 /// OR2T33 /// OR2T8 (11738714_s_at) / RFU VCAN (11748164_a_at) / Fold change /veh VCAN (11748164_a_at) / RFU JSRP1 (11732532_at) / Fold change /veh JSRP1 (11732532_at) / RFU KRTAP10-11 (11738290_x_at) / Fold change /veh KRTAP10-11 (11738290_x_at) / RFU MYO3A (11730013_a_at) / Fold change /veh MYO3A (11730013_a_at) / RFU EBF3 (11725865_a_at) / Fold change /veh EBF3 (11725865_a_at) / RFU CAMK2N1 (11719241_x_at) / Fold change /veh CAMK2N1 (11719241_x_at) / RFU C5orf56 (11738088_a_at) / Fold change /veh C5orf56 (11738088_a_at) / RFU OLFML3 (11715873_a_at) / Fold change /veh OLFML3 (11715873_a_at) / RFU LOC100653217 /// NTM (11731650_a_at) / Fold change /veh LOC100653217 /// NTM (11731650_a_at) / RFU MAPK11 (11762145_a_at) / Fold change /veh MAPK11 (11762145_a_at) / RFU FIZ1 (11724087_x_at) / Fold change /veh FIZ1 (11724087_x_at) / RFU OASL (11726364_x_at) / Fold change /veh OASL (11726364_x_at) / RFU SOX15 (11748057_x_at) / Fold change /veh SOX15 (11748057_x_at) / RFU CD79A (11719716_a_at) / Fold change /veh CD79A (11719716_a_at) / RFU HIST1H1D (11736915_at) / Fold change /veh HIST1H1D (11736915_at) / RFU CASKIN2 (11723855_a_at) / Fold change /veh CASKIN2 (11723855_a_at) / RFU LOC730098 (11760151_x_at) / Fold change /veh LOC730098 (11760151_x_at) / RFU OR4N2 (11742367_at) / Fold change /veh OR4N2 (11742367_at) / RFU PRRT2 (11749266_a_at) / Fold change /veh PRRT2 (11749266_a_at) / RFU SNX32 (11753110_a_at) / Fold change /veh SNX32 (11753110_a_at) / RFU CDHR5 (11726645_a_at) / Fold change /veh CDHR5 (11726645_a_at) / RFU RCAN1 (11760418_a_at) / Fold change /veh RCAN1 (11760418_a_at) / RFU FAM167A (11723789_a_at) / Fold change /veh FAM167A (11723789_a_at) / RFU FAM26E (11764081_at) / Fold change /veh FAM26E (11764081_at) / RFU ISYNA1 (11749810_s_at) / Fold change /veh ISYNA1 (11749810_s_at) / RFU ACY1 (11761880_at) / Fold change /veh ACY1 (11761880_at) / RFU 11764098_at / Fold change /veh 11764098_at / RFU SAMD14 (11745864_x_at) / Fold change /veh SAMD14 (11745864_x_at) / RFU NPB (11741838_a_at) / Fold change /veh NPB (11741838_a_at) / RFU TMPRSS6 (11731388_a_at) / Fold change /veh TMPRSS6 (11731388_a_at) / RFU KRTAP10-2 (11738614_at) / Fold change /veh KRTAP10-2 (11738614_at) / RFU ARHGAP8 /// PRR5-ARHGAP8 (11727945_x_at) / Fold change /veh ARHGAP8 /// PRR5-ARHGAP8 (11727945_x_at) / RFU KRTAP5-7 /// NADSYN1 (11734609_at) / Fold change /veh KRTAP5-7 /// NADSYN1 (11734609_at) / RFU RASL12 (11751679_a_at) / Fold change /veh RASL12 (11751679_a_at) / RFU CDKN2B (11736163_a_at) / Fold change /veh CDKN2B (11736163_a_at) / RFU PRF1 (11729649_at) / Fold change /veh PRF1 (11729649_at) / RFU, ZNF638 /// ZNF638-IT1 / Fold change vs veh, ZNF638 /// ZNF638-IT1 / RFU, PANK3 / Fold change vs veh, PANK3 / RFU, SH3YL1 / Fold change vs veh, SH3YL1 / RFU, ZEB2 / Fold change vs veh, ZEB2 / RFU, NRIP1 / Fold change vs veh, NRIP1 / RFU, PTTG1IP / Fold change vs veh, PTTG1IP / RFU, CAPN2 / Fold change vs veh, CAPN2 / RFU, MED14 / Fold change vs veh, MED14 / RFU, SNORA58 / Fold change vs veh, SNORA58 / RFU, C1orf63 / Fold change vs veh, C1orf63 / RFU, LRRFIP1 / Fold change vs veh, LRRFIP1 / RFU, NDUFAF7 / Fold change vs veh, NDUFAF7 / RFU, SLC12A2 / Fold change vs veh, SLC12A2 / RFU, IBTK / Fold change vs veh, IBTK / RFU, ESF1 / Fold change vs veh, ESF1 / Fold change vs veh, TMEM50B / RFU, TAOK1 / Fold change vs veh, TAOK1 / RFU, ACBD3 / Fold change vs veh, ACBD3 / RFU, TMA16 / Fold change vs veh, TMA16 / RFU, RWDD3 / Fold change vs veh, RWDD3 / RFU, BCAT1 / Fold change vs veh, BCAT1 / RFU, EDEM3 / Fold change vs veh, EDEM3 / RFU, TMEM33 / Fold change vs veh, TMEM33 / RFU, WDR75 / Fold change vs veh, WDR75 / RFU, AHCTF1 / Fold change vs veh, AHCTF1 / RFU, TFRC / Fold change vs veh, TFRC / RFU, ZDHHC17 / Fold change vs veh, ZDHHC17 / RFU, NOM1 / Fold change vs veh, NOM1 / RFU, ARL8B / Fold change vs veh, ARL8B / RFU, ZBTB11 / Fold change vs veh, ZBTB11 / RFU, TAMM41 / Fold change vs veh, TAMM41 / RFU, KIAA1704 /// LOC100996395 / Fold change vs veh, KIAA1704 /// LOC100996395 / RFU, ING1 / Fold change vs veh, ING1 / RFU, TRMT61B / Fold change vs veh, TRMT61B / RFU, FUBP3 / Fold change vs veh, FUBP3 / RFU, TP53 / Fold change vs veh, TP53 / RFU, TNKS2 / Fold change vs veh, TNKS2 / RFU, ZFP14 / Fold change vs veh, ZFP14 / RFU, ACTR2 / Fold change vs veh, ACTR2 / RFU, PPP3R1 / Fold change vs veh, PPP3R1 / RFU, PIK3R1 / Fold change vs veh, PIK3R1 / RFU, HNRNPA1 / Fold change vs veh, HNRNPA1 / RFU, RNF170 / Fold change vs veh, RNF170 / RFU, ZNF28 / Fold change vs veh, ZNF28 / RFU, RNGTT / Fold change vs veh, RNGTT / RFU, OGT / Fold change vs veh, OGT / RFU, BRD1 / Fold change vs veh, BRD1 / RFU, MARS / Fold change vs veh, MARS / RFU, ZNF655 / Fold change vs veh, ZNF655 / RFU, FAHD1 / Fold change vs veh, FAHD1 / RFU, BDP1 / Fold change vs veh, BDP1 / RFU, LRRCC1 / Fold change vs veh, LRRCC1 / RFU, ARID1A / Fold change vs veh, ARID1A / RFU, ZNF146 / Fold change vs veh, ZNF146 / RFU, ZNF330 / Fold change vs veh, ZNF330 / RFU, GPN3 / Fold change vs veh, GPN3 / RFU, C9orf123 / Fold change vs veh, C9orf123 / RFU, N4BP2L2 / Fold change vs veh, N4BP2L2 / RFU, ARFIP1 / Fold change vs veh, ARFIP1 / RFU, FAM179B / Fold change vs veh, FAM179B / RFU, BCL10 / Fold change vs veh, BCL10 / RFU, UHRF1BP1L / Fold change vs veh, UHRF1BP1L / RFU, BET1 / Fold change vs veh, BET1 / RFU, CNOT2 / Fold change vs veh, CNOT2 / RFU, ZNF268 / Fold change vs veh, ZNF268 / Fold change vs veh, ZNF507 / RFU, DGCR2 / Fold change vs veh, DGCR2 / RFU, WDSUB1 / Fold change vs veh, WDSUB1 / Fold change vs veh, HSP90B1 /// MIR3652 / RFU, ADSS / Fold change vs veh, ADSS / RFU, GK / Fold change vs veh, GK / RFU, ZNF148 / Fold change vs veh, ZNF148 / RFU, TAF9 / Fold change vs veh, TAF9 / RFU, SLC1A5 / Fold change vs veh, SLC1A5 / RFU, SLMO2 / Fold change vs veh, SLMO2 / RFU, ABCC4 / Fold change vs veh, ABCC4 / RFU, LOC101060439 /// RAP1B / Fold change vs veh, LOC101060439 /// RAP1B / RFU, RFX7 / Fold change vs veh, RFX7 / RFU, GTPBP10 / Fold change vs veh, GTPBP10 / RFU, CNEP1R1 / Fold change vs veh, CNEP1R1 / RFU, BIVM-ERCC5 /// ERCC5 / Fold change vs veh, BIVM-ERCC5 /// ERCC5 / RFU, ILF3 / Fold change vs veh, ILF3 / RFU 11762660_at / Fold change /veh 11762660_at / RFU VCAN (11757783_s_at) / Fold change /veh VCAN (11757783_s_at) / RFU DDX43 (11728927_at) / Fold change /veh DDX43 (11728927_at) / RFU KRT8 (11758188_x_at) / Fold change /veh KRT8 (11758188_x_at) / RFU NKD1 (11759106_at) / Fold change /veh NKD1 (11759106_at) / RFU SRD5A1 (11742802_a_at) / Fold change /veh SRD5A1 (11742802_a_at) / RFU TPSAB1 /// TPSB2 (11721975_s_at) / Fold change /veh TPSAB1 /// TPSB2 (11721975_s_at) / RFU GSTM3 (11746129_a_at) / Fold change /veh GSTM3 (11746129_a_at) / RFU IL23R (11737362_x_at) / Fold change /veh IL23R (11737362_x_at) / RFU TMEM51 (11727254_a_at) / Fold change /veh TMEM51 (11727254_a_at) / RFU PIWIL2 (11732686_x_at) / Fold change /veh PIWIL2 (11732686_x_at) / RFU ORM1 (11744905_x_at) / Fold change /veh ORM1 (11744905_x_at) / RFU CCDC152 (11743942_at) / Fold change /veh CCDC152 (11743942_at) / RFU ECM1 (11717891_a_at) / Fold change /veh ECM1 (11717891_a_at) / RFU IL23R (11748794_a_at) / Fold change /veh IL23R (11748794_a_at) / RFU TNFAIP8L3 (11732012_x_at) / Fold change /veh TNFAIP8L3 (11732012_x_at) / RFU MBOAT4 (11741988_at) / Fold change /veh MBOAT4 (11741988_at) / RFU 11764193_at / Fold change /veh 11764193_at / RFU TMEM53 (11763286_at) / Fold change /veh TMEM53 (11763286_at) / RFU MAGEB2 (11727129_at) / Fold change /veh MAGEB2 (11727129_at) / RFU TMEM200A (11744735_a_at) / Fold change /veh TMEM200A (11744735_a_at) / RFU CCDC152 (11751479_a_at) / Fold change /veh CCDC152 (11751479_a_at) / RFU FAM211A (11726209_a_at) / Fold change /veh FAM211A (11726209_a_at) / RFU RGS16 (11746705_a_at) / Fold change /veh RGS16 (11746705_a_at) / RFU VCAN (11755009_s_at) / Fold change /veh VCAN (11755009_s_at) / RFU RHOB (11743442_s_at) / Fold change /veh RHOB (11743442_s_at) / RFU RGS16 (11720943_a_at) / Fold change /veh RGS16 (11720943_a_at) / RFU RGS16 (11720944_at) / Fold change /veh RGS16 (11720944_at) / RFU, VPS4B / Fold change vs veh, VPS4B / RFU, CREB1 / Fold change vs veh, CREB1 / RFU, DNAJC13 / Fold change vs veh, DNAJC13 / RFU, GNAQ / Fold change vs veh, GNAQ / RFU, CDK5R1 / Fold change vs veh, CDK5R1 / RFU, ZRANB3 / Fold change vs veh, ZRANB3 / RFU, CUL4A / Fold change vs veh, CUL4A / RFU, CCNY / Fold change vs veh, CCNY / RFU, UFL1 / Fold change vs veh, UFL1 / RFU, COG3 / Fold change vs veh, COG3 / RFU, DIAPH2 / Fold change vs veh, DIAPH2 / RFU, SKA2 / Fold change vs veh, SKA2 / RFU, AFF3 / Fold change vs veh, AFF3 / RFU, LMF1 / Fold change vs veh, LMF1 / RFU, IPO11 / Fold change vs veh, IPO11 / RFU, DFFB / Fold change vs veh, DFFB / RFU, FOXP1 / Fold change vs veh, FOXP1 / RFU, CARD8 / Fold change vs veh, CARD8 / RFU, STRN3 / Fold change vs veh, STRN3 / RFU, ADK / Fold change vs veh, ADK / RFU, RASSF2 / Fold change vs veh, RASSF2 / RFU, WIPF1 / Fold change vs veh, WIPF1 / RFU, LARP1B / Fold change vs veh, LARP1B / RFU, RASA1 / Fold change vs veh, RASA1 / RFU, RB1 / Fold change vs veh, RB1 / RFU, PPFIA1 / Fold change vs veh, PPFIA1 / RFU, MAT2A / Fold change vs veh, MAT2A / RFU, CCT5 / Fold change vs veh, CCT5 / RFU, WDR92 / Fold change vs veh, WDR92 / RFU, CUX1 / Fold change vs veh, CUX1 / RFU, TTC7A / Fold change vs veh, TTC7A / RFU, TMEM135 / Fold change vs veh, TMEM135 / RFU, DEPTOR / Fold change vs veh, DEPTOR / RFU, CPM / Fold change vs veh, CPM / RFU, DNAJB6 / Fold change vs veh, DNAJB6 / RFU, CACNA2D3 / Fold change vs veh, CACNA2D3 / RFU, DTX4 / Fold change vs veh, DTX4 / RFU, TFCP2 / Fold change vs veh, TFCP2 / RFU, GMCL1 /// GMCL1P1 / Fold change vs veh, GMCL1 /// GMCL1P1 / RFU, AEBP2 / Fold change vs veh, AEBP2 / RFU, SNHG1 /// SNORD22 /// SNORD25 /// SNORD26 /// SNORD27 /// SNORD28 /// SNORD29 /// SNORD31 / Fold change vs veh, SNHG1 /// SNORD22 /// SNORD25 /// SNORD26 /// SNORD27 /// SNORD28 /// SNORD29 /// SNORD31 / Fold change (Aza/veh), C12orf56 (ProbeSet 11735607_a_at) / Fold change (ACY-1035/veh), C12orf56 (ProbeSet 11735607_a_at) / Fold change (Aza/veh), FGFR1OP (ProbeSet 11751329_s_at) / Fold change (ACY-1035/veh), FGFR1OP (ProbeSet 11751329_s_at) / Fold change (Aza/veh), VPS36 (ProbeSet 11739960_a_at) / Fold change (ACY-1035/veh), VPS36 (ProbeSet 11739960_a_at) / RFU SYPL1 (11715823_x_at) / Fold change /veh SYPL1 (11715823_x_at) / RFU IGFBP7 (11715501_s_at) / Fold change /veh IGFBP7 (11715501_s_at) / RFU REEP3 (11722064_at) / Fold change /veh REEP3 (11722064_at) / RFU IGLL1 (11728026_x_at) / Fold change /veh IGLL1 (11728026_x_at): dose or concentration left out as unconfirmed", "settings": "MV-4-11 cells, 48 hours", "data": [{"smiles": "Nc1ccc(-c2cccs2)cc1NC(=O)c1ccc2c(c1)cc(C1CC1)n2CCN1CCOCC1", "note": "[ACY-1035]", "values": [{"measurement": "RFU C10orf10 (11716522_x_at)", "result": 43.57, "unit": "RFU"}]}]}
